Results on 28 compounds are retold here after patent publication US11524938B2, “Aromatic sulfonamide derivatives” (Bayer Pharma Aktiengesellschaft, priority 2016, dated 2022).

Molecules are shown by their SMILES. Several values for one entry are separate records, joined by “and”; a condition that tells them apart may be missing. Equal values may be shown once. Some results are limits rather than exact numbers.

In general, IC50 refers to the concentration at which inhibition is half-maximal.

In this test the target is T1, human P2X4 (Homo sapiens, UniProt Q99571).
T1 sequence (Q99571 1-388): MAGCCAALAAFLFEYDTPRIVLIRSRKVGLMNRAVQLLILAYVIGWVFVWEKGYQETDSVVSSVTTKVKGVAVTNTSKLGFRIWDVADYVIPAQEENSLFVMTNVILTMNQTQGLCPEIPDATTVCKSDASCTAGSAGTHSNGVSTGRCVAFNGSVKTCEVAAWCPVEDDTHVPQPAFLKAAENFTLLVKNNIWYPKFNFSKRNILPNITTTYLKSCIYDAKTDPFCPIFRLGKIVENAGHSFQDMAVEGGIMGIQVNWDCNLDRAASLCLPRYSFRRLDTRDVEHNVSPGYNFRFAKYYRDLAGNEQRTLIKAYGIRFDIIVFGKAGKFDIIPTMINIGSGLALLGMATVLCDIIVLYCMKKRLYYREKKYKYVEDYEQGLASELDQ
The experiment in a line: Human P2X4 HEK Cell FLIPR Assay. It is filed as cell-based. The following applies: agonist Bz-ATP at EC80; for Emax: HEK293, HEK293 cells, percentage of maximal inhibition, read-out: Human P2X4 HEK Cells (FLIPR Assay) avg Efficacy [%]; for IC50: HEK293 cells, individual values listed where some fall outside detection range. The method, boiled down:
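Calcium flux read by FLIPR for 120 sec after Bz-ATP challenge at EC80 (established each assay day), following 30 min room-temperature compound preincubation in dye-loaded stable human P2X4 HEK293 cells. Peak RFU over basal normalized to agonist control; IC50, maximal inhibition and Hill coefficient from triplicate means.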

Turning to `NS(=O)(=O)c1cc(NC(=O)Cc2ccccc2Cl)ccc1-c1cnc(C(F)(F)F)s1` [Example 483, 2-(2-Chlorophenyl)-N-{3-sulfamoyl-4-[2-(trifluoromethyl)-1,3-thiazol-5-yl]phenyl}acetamide], the Emax was 86% and the IC50 was 71 nM.

On to `N#Cc1cnn(-c2cc(C(F)(F)F)c(NC(=O)Cc3ccccc3Cl)cc2S(N)(=O)=O)c1` [Example 484, 2-(2-Chlorophenyl)-N-[4-(4-cyano-1H-pyrazol-1-yl)-5-sulfamoyl-2-(trifluoromethyl)phenyl]acetamide], for which the Emax turned out to be 63% and the IC50 was found to be 401 nM.

`N#Cc1cnn(-c2ccc(NC(=O)Cc3cc(C(F)(F)F)ccc3Cl)cc2S(N)(=O)=O)c1` [Example 485, 2-[2-Chloro-5-(trifluoromethyl)phenyl]-N-[4-(4-cyano-1H-pyrazol-1-yl)-3-sulfamoylphenyl]acetamide]: the Emax was 100% and the IC50 was found to be 128 nM.

Regarding `N#Cc1cnn(-c2cc(C(F)(F)F)c(NC(=O)Cc3cc(C(F)(F)F)ccc3Cl)cc2S(N)(=O)=O)c1` [Example 486, 2-[2-Chloro-5-(trifluoromethyl)phenyl]-N-[4-(4-cyano-1H-pyrazol-1-yl)-5-sulfamoyl-2-(trifluoromethyl)phenyl]acetamide], the Emax is 71% and the half-maximal inhibitory concentration (IC50) is 7340 nM.

Consider `N#Cc1cnn(-c2ccc(NC(=O)Cc3ccccc3Cl)c(C(F)(F)F)c2S(N)(=O)=O)c1` [Example 487, 2-(2-Chlorophenyl)-N-[4-(4-cyano-1H-pyrazol-1-yl)-3-sulfamoyl-2-(trifluoromethyl)phenyl]acetamide], for which the Emax was found to be 45% and the IC50 is > 25000 nM.

On to `N#Cc1cnn(-c2cc(C(F)(F)F)c(NC(=O)Cc3cccc(C(F)(F)F)c3Cl)cc2S(N)(=O)=O)c1` [Example 488, 2-[2-Chloro-3-(trifluoromethyl)phenyl]-N-[4-(4-cyano-1H-pyrazol-1-yl)-5-sulfamoyl-2-(trifluoromethyl)phenyl]acetamide], for which the Emax amounted to 78% and the IC50 came to 2330 nM.

`NS(=O)(=O)c1c(-c2cnn(C(F)F)c2)ccc(NC(=O)Cc2ccccc2Cl)c1C(F)(F)F` [Example 489, 2-(2-Chlorophenyl)-N-{4-[1-(difluoromethyl)-1H-pyrazol-4-yl]-3-sulfamoyl-2-(trifluoromethyl)phenyl}acetamide]: the Emax turned out to be 83% and the IC50 stood at 2060 nM.

As for `NS(=O)(=O)c1cc(NC(=O)Cc2cccc(C(F)(F)F)c2Cl)ccc1-c1cnn(C(F)F)c1` [Example 490, 2-[2-Chloro-3-(trifluoromethyl)phenyl]-N-{4-[1-(difluoromethyl)-1H-pyrazol-4-yl]-3-sulfamoylphenyl}acetamide], the Emax was 95% and the half-maximal inhibitory concentration (IC50) came out at 91 nM.

Regarding `NS(=O)(=O)c1cc(NC(=O)Cc2ccccc2Cl)c(C(F)(F)F)cc1-c1cnn(C(F)F)c1` [Example 491, 2-(2-Chlorophenyl)-N-{4-[1-(difluoromethyl)-1H-pyrazol-4-yl]-5-sulfamoyl-2-(trifluoromethyl)phenyl}acetamide], the Emax is 67% and the concentration for half-maximal inhibition (IC50) turned out to be 9090 nM.

Take `NS(=O)(=O)c1cc(NC(=O)Cc2ccccc2Cl)ccc1-c1cnn(C(F)F)c1C(F)(F)F` [Example 492, 2-(2-Chlorophenyl)-N-{4-[1-(difluoromethyl)-5-(trifluoromethyl)-1H-pyrazol-4-yl]-3-sulfamoylphenyl}acetamide]: the Emax stood at 92% and the IC50 is 531 nM.

As to `NS(=O)(=O)c1c(-c2cnn(C(F)F)c2)ccc(NC(=O)Cc2ccccc2Cl)c1F` [Example 493, 2-(2-Chlorophenyl)-N-{4-[1-(difluoromethyl)-1H-pyrazol-4-yl]-2-fluoro-3-sulfamoylphenyl}acetamide], the Emax stood at 90% and the 50% inhibitory concentration (IC50) came out at 228 nM.

As for `NS(=O)(=O)c1cc(NC(=O)Cc2ccccc2Cl)c(F)cc1-c1cnn(C(F)F)c1` [Example 494, 2-(2-Chlorophenyl)-N-{4-[1-(difluoromethyl)-1H-pyrazol-4-yl]-2-fluoro-5-sulfamoylphenyl}acetamide], the Emax was 94% and the IC50 was found to be 205 nM.

Turning to `CN(C)c1nc(-c2ccc(NC(=O)Cc3ccccc3Cl)cc2S(N)(=O)=O)cs1` [Example 495, 2-(2-Chlorophenyl)-N-{4-[2-(dimethylamino)-1,3-thiazol-4-yl]-3-sulfamoylphenyl}acetamide], the Emax was 75% and the 50% inhibitory concentration (IC50) is 128 nM.

Regarding `NS(=O)(=O)c1cc(NC(=O)Cc2ccccc2Cl)ccc1-c1ccns1` [Example 496, 2-(2-Chlorophenyl)-N-[3-sulfamoyl-4-(1,2-thiazol-5-yl)phenyl]acetamide], the Emax worked out at 87% and the IC50 was 22 nM.

On to `CN(C(=O)c1cnn(-c2ccc(NC(=O)Cc3ccccc3Cl)cc2S(N)(=O)=O)c1)C1CC1` [Example 497, 1-(4-{[(2-Chlorophenyl)acetyl]amino}-2-sulfamoylphenyl)-N-cyclopropyl-N-methyl-1H-pyrazole-4-carboxamide], for which the Emax was determined as 97% and the IC50 turned out to be 54 nM.

As to `NS(=O)(=O)c1cc(NC(=O)C(O)c2ccccc2Cl)ccc1-n1cc(C(F)(F)F)cn1` (centres unmarked) [Example 498, 2-(2-Chlorophenyl)-2-hydroxy-N-{3-sulfamoyl-4-[4-(trifluoromethyl)-1H-pyrazol-1-yl]phenyl}ethanamide], the Emax was 50%; the IC50 was 18200 nM and > 25000 nM.

Regarding `NS(=O)(=O)c1cc(NC(=O)Cc2ccccc2Cl)cc(Cl)c1-n1cc(C(F)(F)F)cn1` [Example 499, 2-(2-Chlorophenyl)-N-{3-chloro-5-sulfamoyl-4-[4-(trifluoromethyl)-1H-pyrazol-1-yl]phenyl}acetamide], the Emax is 69% and the IC50 came to 347 nM.

As for `N#Cc1cn(-c2ccc(NC(=O)Cc3ccccc3Cl)cc2S(N)(=O)=O)nc1O` [Example 500, 2-(2-Chlorophenyl)-N-[4-(4-cyano-3-hydroxy-1H-pyrazol-1-yl)-3-sulfamoylphenyl]acetamide], the Emax was 40% and the IC50 is > 25000 nM.

On to `NS(=O)(=O)c1cc(NC(=O)Cc2ccccc2Cl)ccc1-n1ncc2cnccc21` [Example 501, 2-(2-Chlorophenyl)-N-[4-(1H-pyrazolo[4,3-c]pyridin-1-yl)-3-sulfamoylphenyl]acetamide], for which the Emax was 92% and the IC50 amounted to 3 nM.

As to `Cc1nc(-c2ccc(NC(=O)Cc3ccccc3Cl)cc2S(N)(=O)=O)sc1C` [Example 502, 2-(2-Chlorophenyl)-N-[4-(4,5-dimethyl-1,3-thiazol-2-yl)-3-sulfamoylphenyl]acetamide], the Emax is 49% and the concentration for half-maximal inhibition (IC50) turned out to be 13800 nM.

For the compound `Cc1nc(C)c(-c2ccc(NC(=O)Cc3ccccc3Cl)cc2S(N)(=O)=O)s1` [Example 503, 2-(2-Chlorophenyl)-N-[4-(2,4-dimethyl-1,3-thiazol-5-yl)-3-sulfamoylphenyl]acetamide], the Emax is 102% and the IC50 turned out to be 47 nM.

Regarding `Cc1ncsc1-c1ccc(NC(=O)Cc2ccccc2Cl)cc1S(N)(=O)=O` [Example 504, 2-(2-Chlorophenyl)-N-[4-(4-methyl-1,3-thiazol-5-yl)-3-sulfamoylphenyl]acetamide], the Emax worked out at 98% and the half-inhibitory concentration (IC50) is 33 nM.

For `Nc1cnn(-c2ccc(NC(=O)Cc3ccccc3Cl)cc2S(N)(=O)=O)c1` [Example 505], the Emax amounted to 93% and the IC50 is 131 nM.

For the compound `NS(=O)(=O)c1cc(NC(=O)Cc2ccccc2Cl)ccc1-n1cc(NC(=O)C(F)F)cn1` [Example 506, N-[1-(4-{[(2-Chlorophenyl)acetyl]amino}-2-sulfamoylphenyl)-1H-pyrazol-4-yl]-2,2-difluoroacetamide], the Emax was determined as 91% and the IC50 came to 391 nM.

Consider `NS(=O)(=O)c1cc(NC(=O)Cc2ccccc2Cl)ccc1-n1cc(NC(=O)CC(F)(F)F)cn1` [Example 507, N-[1-(4-{[(2-Chlorophenyl)acetyl]amino}-2-sulfamoylphenyl)-1H-pyrazol-4-yl]-3,3,3-trifluoropropanamide], for which the Emax was found to be 86% and the IC50 turned out to be 180 nM.

Turning to `C[C@@H]1CC[C@H](C)N1c1cnn(-c2ccc(NC(=O)Cc3ccccc3Cl)cc2S(N)(=O)=O)c1` [Example 511, 2-(2-Chlorophenyl)-N-(4-{4-[(cis)-2,5-dimethylpyrrolidin-1-yl]-1H-pyrazol-1-yl}-3-sulfamoylphenyl)acetamide], the Emax is 60% and the IC50 stood at 343 nM.

Take `NS(=O)(=O)c1cc(NC(=O)Cc2ccccc2F)ccc1-n1cc(NCC(F)F)cn1` [Example 514, N-(4-{4-[(2,2-Difluoroethyl)amino]-1H-pyrazol-1-yl}-3-sulfamoylphenyl)-2-(2-fluorophenyl)acetamide]: the Emax is 102% and the IC50 came to 106 nM.

Turning to `NS(=O)(=O)c1cc(NC(=O)Cc2ccccc2Cl)ccc1-n1cc(NCC(F)(F)F)cn1` [Example 515, 2-(2-Chlorophenyl)-N-(3-sulfamoyl-4-{4-[(2,2,2-trifluoroethyl)amino]-1H-pyrazol-1-yl}phenyl)acetamide], the Emax stood at 101% and the IC50 stood at 45 nM.
